Results as given in patent US20190367520A1, “NEW COMPOUND HAVING FGFR INHIBITORY ACTIVITY AND PREPARATION AND APPLICATION THEREOF” (SHANGHAI INSTITUTE OF MATERIA MEDICA, CHINESE ACADEMY OF …, priority 2016, published 2019).

Experiments:
[1] = molecular target: FGFR4 kinase domain recombinant protein (Homo sapiens, UniProt P22455); test: FGFR4 enzyme activity at molecular level (ELISA, Poly(Glu,Tyr) 4:1 substrate)
Description: (§1) The plate was placed at 37° C. for 12-16 hours. The liquid in the well was discarded, the plate was washed, and the panel was washed three times with 200 μL/well of T-PBS (PBS containing 0.1% Tween-20) for 5 minutes each time.
(§2) 50 μL of ATP solution diluted with reaction buffer (50 mM HEPES pH 7.4, 50 mM MgCl2, 0.5 mM MnCl2, 0.2 mM Na3VO4, 1 mM DTT) was added to each well to a final concentration of 5 μM. The compound was diluted to a suitable concentration in DMSO, 1 μL/well or containing the corresponding concentration of DMSO (negative control well), and the FGFR1, FGFR4 kinase domain recombinant protein diluted in 49 μL of reaction buffer was added to initiate the reaction. Two control wells without ATP were required for each experiment. The reaction was carried out for 1 hour at 37° C. on a shaker (100 rpm). The plate was washed three times with T-PBS. Primary antibody, PY99 dilution was added at 100 μL/well and shaken at 37° C. for 0.5 hour. The plate was washed three times with T-PBS. Secondary antibody, horseradish peroxidase-labeled goat anti-mouse IgG dilution was added at 100 μL/well, and shaken at 37° C. for 0.5 hour. […] (Ultrasound was required for the dissolution of OPD, and the chromogenic solution needed to be prepared when used). 2 M H2SO4 was added at 50 μL/well to quench the reaction and a tunable wavelength microplate reader SPECTRA MAX 190 was used at a wavelength of 490 nm.
(§3) The inhibition rate of the sample was obtained by the following formula:
(§4) The IC50 value was obtained by four-parameter regression using the software attached to the microplate reader.

[2] = molecular target: FGFR1 kinase domain recombinant protein (Homo sapiens, UniProt P11362); test: FGFR1 enzyme activity at molecular level (ELISA, Poly(Glu,Tyr) 4:1 substrate)
Sequence of FGFR1 kinase domain recombinant protein (P11362 478-767 limits assumed): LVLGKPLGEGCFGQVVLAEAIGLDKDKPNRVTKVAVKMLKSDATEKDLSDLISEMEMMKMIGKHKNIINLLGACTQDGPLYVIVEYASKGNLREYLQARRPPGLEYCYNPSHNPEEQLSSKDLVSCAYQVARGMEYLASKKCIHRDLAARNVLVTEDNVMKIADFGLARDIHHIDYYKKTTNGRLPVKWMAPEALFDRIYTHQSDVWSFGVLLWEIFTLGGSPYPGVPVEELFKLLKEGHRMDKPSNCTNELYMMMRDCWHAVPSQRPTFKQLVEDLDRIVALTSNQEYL
Description: as §1, §2, §3, §4

[3] = test system: SNU16 cells; test: SNU16 cell proliferation (CCK-8, 72 h); assay type: cell-based; conditions: Homo sapiens, SNU-16, read-out: SNU16 (IC50 class)
Description: The inhibitory effect of the compound on SNU16 cells proliferation was examined by CCK-8 Cell Counting Kit (Dojindo). The specific steps are as follows: SNU16 cells in logarithmic growth phase were inoculated into a 96-well culture plate at a suitable density, 90 μL per well, and cultured overnight, different concentrations of compounds were added for 72 hr, and the solvent control group was set (negative control). After the cells were treated by the compound for 72 h, the effect of the compound on cell proliferation was detected by CCK-8 cell counting kit (Dojindo). 10 μL of CCK-8 reagent was added to each well and placed in a 37° C. incubator for 2-4 hours. The full-wavelength microplate reader SpectraMax 190 was used at a measure wavelength of 450 nm.

Sequence of FGFR4 kinase domain recombinant protein (P22455 467-755 limits assumed): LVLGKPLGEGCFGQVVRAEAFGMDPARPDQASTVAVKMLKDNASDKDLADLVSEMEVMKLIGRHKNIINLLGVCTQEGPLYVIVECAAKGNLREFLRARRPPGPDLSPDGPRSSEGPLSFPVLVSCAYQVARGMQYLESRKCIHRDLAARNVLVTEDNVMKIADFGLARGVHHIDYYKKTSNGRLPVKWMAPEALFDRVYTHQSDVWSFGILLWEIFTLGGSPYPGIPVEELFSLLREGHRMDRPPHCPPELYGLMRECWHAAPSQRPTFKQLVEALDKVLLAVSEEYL

Row | Compound | IC50 [1] [nM] | IC50 [2] [nM] | IC50 [3] [nM] | FGFR inhibitory activity (in words) ([2]; FGFR1 and FGFR4 enzymes, conclusion from Table 2)
1 | C=CS(=O)(=O)N1CC[C@H](n2nc(-c3cc4cc(C)cc(OC)c4s3)c3c(N)ncnc32)C1 [NO. 40] | < 10 | < 10 | > 100 | –
2 | C#CC(=O)N1CC(n2nc(-c3cc4cc(C)cc(OC)c4s3)c3c(N)ncnc32)C1 [NO. 27] | 10 to 100 | < 10 | > 100 | –
3 | C=CC(=O)N1CCC(n2cc(-c3ccc4[nH]c(C)nc4c3)c3c(N)ncnc32)C1 (stereo not drawn) [NO. 36, 1-(3-(4-amino-5-(2-methyl-1H-benzimidazol-5-yl)-7H-pyrrole[2,3-d]pyrimidine-7-yl)pyrrolidine-1-yl)prop-2-en-1-one] | 10 to 100 | 10 to 100 | > 100 | –
4 | C=C(CN1CCOCC1)C(=O)N1CC(n2cc(-c3cc4cc(C)cc(OC)c4s3)c3c(N)ncnc32)C1 [NO. 31, 1-(3-(4-amino-5-(7-methoxy-5-methylbenzothiophene-2-yl)-7H-pyrrole[2,3-d]pyrimidine-7-yl)azetidine-1-yl)-2-(morpholinomethylene)prop-2-en-1-one] | < 10 | < 10 | < 10 | –
5 | C=CC(=O)N1CC(n2cc(-c3cc4c(OC)ccc(OC)c4s3)c3c(N)ncnc32)C1 [NO. 41, 1-(3-(4-amino-5-(4,7-dimethoxybenzothiophen-2-yl)-7H-pyrrole[2,3-d]pyrimidine-7-yl)azetidine-1-yl)prop-2-en-1-one] | – | – | 10 to 100 | –
6 | COc1cc(C)cc2cc(-c3cn(C4CCN(C(=O)/C=C/CN5CCCCC5)C4)c4ncnc(N)c34)sc12 (stereo not drawn) [NO. 8, (E) 1-(3-(4-amino-5-(7-methoxy-5-methylbenzothiophene-2-yl)-7H-pyrrole[2,3-d]pyrimidine-7-yl)pyrrolidine-1-yl)-4-(piperidine-1-yl)but-2-en-1-one] | 10 to 100 | < 10 | – | –
7 | C=CC(=O)NCCn1nc(-c2cc3cc(C)cc(OC)c3s2)c2c(N)ncnc21 [NO. 50, N-(2-(4-amino-3-(7-methoxy-5-methylbenzothiophen-2-yl)-1H-pyrazole[3,4-d]pyrimidine-1-yl)ethyl)acrylamide] | > 100 | > 100 | – | –
8 | C=CC(=O)N1CC[C@H](n2cc(-c3cnc4ccccc4c3)c3c(N)ncnc32)C1 [Control compound, (S)-1-(3-(4-amino-5-(quinolin-3-yl)-7H-pyrrole[2,3-d]pyrimidine-7-yl)pyrrolidine-1-yl)prop-2-en-1-one, reference compound] | 10 to 100 | > 100 | – | substantially no FGFR inhibitory activity
9 | C=C(CN1CCOCC1)C(=O)N1CC(n2nc(-c3cc4cc(C)cc(OC)c4s3)c3c(N)ncnc32)C1 [NO. 55, 1-(3-(4-amino-3-(7-methoxy-5-methylbenzothiophene-2-yl)-1H-pyrazole[3,4-d]pyrimidin-yl)azetidine-1-yl)-2-(morpholinemethylene)prop-2-en-1-one] | < 10 | < 10 | – | –
10 | C=CC(=O)N1CCC(n2cc(-c3cc4cc(C)cc(OC)c4s3)c3c(N(C)C)ncnc32)C1 (stereo not drawn) [NO. 63, 1-(3-(4-(dimethylamino)-5-(7-methoxy-5-methylbenzothiophene-2-yl)-7H-pyrrole[2,3-d]pyrimidine-7-yl)pyrrolidine-1-yl)prop-2-en-1-one] | > 100 | > 100 | – | –
11 | C=C(CN1CCN(C)CC1)C(=O)N1CC[C@H](n2cc(-c3cc4cc(C)cc(OC)c4s3)c3c(N)ncnc32)C1 [NO. 49, (S) 1-(3-(4-amino-5-(7-methoxy-5-methylbenzothiophene-2-yl)-7H-pyrrole[2,3-d]pyrimidine-7-yl)pyrrolidine-1-yl)-2-((4-methylpiperazin-1-yl)-methylene)prop-2-en-1-one] | < 10 | 10 to 100 | – | –
12 | C=CC(=O)N1CC[C@@H](n2cc(-c3cc4cc(C)cc(OC)c4s3)c3c(N)ncnc32)C1 [NO. 11, (R)-1-(3-(4-amino-5-(7-methoxy-5-methylbenzothiophene-2-yl)-7H-pyrrole[2,3-d]pyrimidine-7-yl)pyrrolidine-1-yl)prop-2-en-1-one] | 10 to 100 | < 10 | – | –
13 | C/C=C/C(=O)N1CCC(n2cc(-c3cc4cc(C)cc(OC)c4s3)c3c(N)ncnc32)C1 (stereo not drawn) [NO. 18, (E)-1-(3-(4-amino-5-(7-methoxy-5-methylbenzothiophene-2-yl)-7H-pyrrole[2,3-d]pyrimidine-7-yl)pyrrolidine-1-yl)but-2-en-1-one] | 10 to 100 | < 10 | – | –
14 | CCN(C)C/C=C/C(=O)N1CCC(n2cc(-c3cc4cc(C)cc(OC)c4s3)c3c(N)ncnc32)C1 (stereo not drawn) [NO. 5, (E) 1-(3-(4-amino-5-(7-methoxy-5-methylbenzothiophene-2-yl)-7H-pyrrole[2,3-d]pyrimidine-7-yl)pyrrolidine-1-yl)-4-(ethyl(methy)amino)but-2-en-1-one] | 10 to 100 | < 10 | – | –
15 | C=CC(=O)N1CCC(Cn2cc(-c3cc4cc(C)cc(OC)c4s3)c3c(N)ncnc32)C1 (stereo not drawn) [NO. 20, 1-(3-((4-amino-5-(7-methoxy-5-methylbenzothiophene-2-yl)-7H-pyrrole [2,3-d]pyrimidine-7-yl)methyl)pyrrolidine-1-yl)prop-2-en-1-one] | 10 to 100 | 10 to 100 | – | –
16 | COc1cc(C)cc2cc(-c3cn(C4CCN(C(=O)C(C#N)=CC5CC5)C4)c4ncnc(N)c34)sc12 (stereo not drawn) [NO. 25, 2-(3-(4-amino-5-(7-methoxy-5-methylbenzothiophene-2-yl)-7H-pyrrole[2,3-d]pyrimidine-7-yl)pyrrolidine-1-carbonyl)-3-cyclopropyl acrylonitrile] | < 10 | < 10 | – | –
17 | C=CS(=O)(=O)N1CC(n2cc(-c3cc4cc(C)cc(OC)c4s3)c3c(N)ncnc32)C1 [NO. 28, 5-(7-methoxy-5-methylbenzothiophene-2-yl)-7-(1-(vinylsulfonyl)azetidine-3-yl)-7H-pyrrole[2,3-d]pyrimidine-4-amine] | – | < 10 | > 100 | –
18 | COc1cc(C)cc2cc(-c3cn(C4CN(C(=O)/C=C/CN5CCCC5)C4)c4ncnc(N)c34)sc12 [NO. 17] | 10 to 100 | < 10 | – | –
19 | COc1cc(C)cc2cc(-c3cn(C4CCNC4)c4ncnc(N)c34)sc12 (stereo not drawn) [NO. 9, 5-(7-methoxy-5-methylbenzothiophene-2-yl)-7-(pyrrolidine-3-yl)-7H-pyrrole[2,3-d]pyrimidine-4-amine] | > 100 | 10 to 100 | – | –
20 | C=C(CN(CC)CC)C(=O)N1CC(n2cc(-c3cc4cc(C)cc(OC)c4s3)c3c(N)ncnc32)C1 [NO. 51, 1-(3-(4-amino-5-(7-methoxy-5-methylbenzothiophene-2-yl)-7H-pyrrole[2,3-d]pyrimidine-7-yl)azetidine-1-yl)-2-((diethylamino)methylene)prop-2-en-1-one] | < 10 | < 10 | – | –
21 | C=CC(=O)Nc1cccc(Cn2nc(-c3cc4cc(C)cc(OC)c4s3)c3c(N)ncnc32)c1 [NO. 78, N-(3-((4-amino-3-(7-methoxy-5-methylbenzothiophene-2-yl)-1H-pyrazole[3,4-d]pyrimidine-1-yl)methyl)phenyl)acrylamide] | 10 to 100 | < 10 | – | –
22 | COc1cc(C)cc2cc(-c3cn(C4CCN(C(=O)/C=C/CN5CCCC5)C4)c4ncnc(N)c34)sc12 (stereo not drawn) [NO. 7, (E)1-(3-(4-amino-5-(7-methoxy-5-methylbenzothiophene-2-yl)-7H-pyrrole[2,3-d]pyrimidine-7-yl)pyrrolidine-1-yl)-4-(pyrrolidine-1-yl)but-2-en-1-one] | 10 to 100 | < 10 | – | –
